Data as given in ChEMBL document CHEMBL5260810, “Inhibition of bromodomain-containing protein 9 for the prevention of epigenetically-defined drug resistance” (Bioorg Med Chem Lett, 2017).

How the values were obtained:
[1] = Cytotoxicity against human GP2d cells measured after 8 days; type: functional, cell-based; details: 192 h
Peregrin = target: T1, Peregrin (Homo sapiens, UniProt P55201); assay: Binding affinity to human partial length BRPF1 (E627 to G740 residues) expressed in bacterial expression system by BROMOscan assay
T1 sequence (P55201 whole entry): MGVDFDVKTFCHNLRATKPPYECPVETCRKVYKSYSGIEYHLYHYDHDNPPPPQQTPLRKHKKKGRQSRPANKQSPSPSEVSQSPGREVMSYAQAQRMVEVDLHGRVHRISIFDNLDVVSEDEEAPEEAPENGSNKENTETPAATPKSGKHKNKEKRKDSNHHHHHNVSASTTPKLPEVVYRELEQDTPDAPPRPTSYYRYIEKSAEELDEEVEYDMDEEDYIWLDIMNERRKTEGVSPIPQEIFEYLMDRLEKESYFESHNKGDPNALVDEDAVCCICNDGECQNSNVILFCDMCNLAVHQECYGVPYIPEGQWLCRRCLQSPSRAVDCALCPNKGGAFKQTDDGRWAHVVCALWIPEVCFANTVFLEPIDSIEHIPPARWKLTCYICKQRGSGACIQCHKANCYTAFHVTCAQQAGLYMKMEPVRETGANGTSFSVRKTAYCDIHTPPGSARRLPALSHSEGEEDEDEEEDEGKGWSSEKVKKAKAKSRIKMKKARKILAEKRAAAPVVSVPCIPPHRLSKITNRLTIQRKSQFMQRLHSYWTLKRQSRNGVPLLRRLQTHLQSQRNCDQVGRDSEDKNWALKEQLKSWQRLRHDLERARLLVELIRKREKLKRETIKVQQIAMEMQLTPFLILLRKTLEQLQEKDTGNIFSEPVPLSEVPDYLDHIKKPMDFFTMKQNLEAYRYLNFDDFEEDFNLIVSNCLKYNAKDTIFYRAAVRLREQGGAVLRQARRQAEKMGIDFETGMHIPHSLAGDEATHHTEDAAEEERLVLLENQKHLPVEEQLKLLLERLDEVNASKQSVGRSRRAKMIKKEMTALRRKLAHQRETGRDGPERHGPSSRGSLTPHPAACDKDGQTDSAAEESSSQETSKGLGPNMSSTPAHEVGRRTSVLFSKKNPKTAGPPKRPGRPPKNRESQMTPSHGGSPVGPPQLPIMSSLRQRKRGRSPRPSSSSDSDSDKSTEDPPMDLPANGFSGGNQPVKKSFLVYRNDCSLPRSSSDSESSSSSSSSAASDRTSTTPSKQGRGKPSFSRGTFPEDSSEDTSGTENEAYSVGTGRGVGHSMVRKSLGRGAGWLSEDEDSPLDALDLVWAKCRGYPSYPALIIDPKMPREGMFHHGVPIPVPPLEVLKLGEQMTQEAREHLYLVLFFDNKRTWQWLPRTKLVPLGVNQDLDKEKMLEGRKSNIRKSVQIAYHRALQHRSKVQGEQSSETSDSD

HCC4017 = assay: Cytotoxicity against human HCC4017 cells measured after 8 days; type: functional, cell-based; details: HCC4017, 192 h
[2] = Cytotoxicity against human HCC4011 cells measured after 8 days; type: functional, cell-based; details: HCC4011, 192 h
[3] = Cytotoxicity against human 501A cells measured after 8 days; type: functional, cell-based; details: 192 h
OCI-AML-5 = assay: Cytotoxicity against human OCI-AML5 cells measured after 8 days; type: functional, cell-based; details: OCI-AML-5, 192 h
[4] = target: T2, Muscle, skeletal receptor tyrosine-protein kinase (Homo sapiens) (UniProt O15146); assay: Inhibition of MuSK (unknown origin) at 1 uM relative to control
T2 sequence (whole entry): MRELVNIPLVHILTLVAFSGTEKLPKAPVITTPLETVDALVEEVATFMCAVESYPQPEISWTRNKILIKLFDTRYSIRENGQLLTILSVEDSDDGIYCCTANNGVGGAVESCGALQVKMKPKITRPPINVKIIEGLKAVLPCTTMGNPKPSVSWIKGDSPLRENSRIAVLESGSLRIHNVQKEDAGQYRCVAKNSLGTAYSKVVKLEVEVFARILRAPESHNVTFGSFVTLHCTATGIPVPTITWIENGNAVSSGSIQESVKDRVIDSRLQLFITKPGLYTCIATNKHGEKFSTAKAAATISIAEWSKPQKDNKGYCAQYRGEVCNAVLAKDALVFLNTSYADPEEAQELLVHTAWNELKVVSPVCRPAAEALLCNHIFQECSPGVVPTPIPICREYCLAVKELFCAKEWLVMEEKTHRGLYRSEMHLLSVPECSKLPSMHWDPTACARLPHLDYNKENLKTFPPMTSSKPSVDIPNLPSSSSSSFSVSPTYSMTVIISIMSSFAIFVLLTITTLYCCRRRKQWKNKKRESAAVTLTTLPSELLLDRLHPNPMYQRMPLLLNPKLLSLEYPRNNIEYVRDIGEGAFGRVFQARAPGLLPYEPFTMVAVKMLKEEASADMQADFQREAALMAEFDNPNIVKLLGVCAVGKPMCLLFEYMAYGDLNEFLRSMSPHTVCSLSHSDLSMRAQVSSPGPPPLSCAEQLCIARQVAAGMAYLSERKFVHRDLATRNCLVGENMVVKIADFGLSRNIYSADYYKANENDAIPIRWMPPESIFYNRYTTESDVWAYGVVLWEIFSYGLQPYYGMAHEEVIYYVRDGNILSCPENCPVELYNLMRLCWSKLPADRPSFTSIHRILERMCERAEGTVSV

[5] = Cytotoxicity against human NCI-H2106 cells measured after 8 days; type: functional, cell-based; details: NCI-H2106, 192 h
NCI-H1993 = assay: Cytotoxicity against human NCI-H1993 cells measured after 8 days; type: functional, cell-based; details: NCI-H1993, 192 h
[6] = Cytotoxicity against human OUMS-23 cells measured after 8 days; type: functional, cell-based; details: OUMS-23, 192 h
[7] = Cytotoxicity against human OV7 cells measured after 8 days; type: functional, cell-based; details: OV7, 192 h
[8] = target: Bromodomain-containing protein 4 (Homo sapiens, UniProt O60885); assay: Binding affinity to human partial length BRD4 bromodomain 1 long isoform (N44 to E168 residues) expressed in bacterial expression system by BROMOscan assay
[9] = target: Bromodomain adjacent to zinc finger domain protein 2A (Homo sapiens, UniProt Q9UIF9); assay: Binding affinity to human partial length BAZ2A (M1792 to L1905 residues) expressed in bacterial expression system by BROMOscan assay
Sequence of Bromodomain adjacent to zinc finger domain protein 2A (Q9UIF9 whole entry, the tested form may be a part): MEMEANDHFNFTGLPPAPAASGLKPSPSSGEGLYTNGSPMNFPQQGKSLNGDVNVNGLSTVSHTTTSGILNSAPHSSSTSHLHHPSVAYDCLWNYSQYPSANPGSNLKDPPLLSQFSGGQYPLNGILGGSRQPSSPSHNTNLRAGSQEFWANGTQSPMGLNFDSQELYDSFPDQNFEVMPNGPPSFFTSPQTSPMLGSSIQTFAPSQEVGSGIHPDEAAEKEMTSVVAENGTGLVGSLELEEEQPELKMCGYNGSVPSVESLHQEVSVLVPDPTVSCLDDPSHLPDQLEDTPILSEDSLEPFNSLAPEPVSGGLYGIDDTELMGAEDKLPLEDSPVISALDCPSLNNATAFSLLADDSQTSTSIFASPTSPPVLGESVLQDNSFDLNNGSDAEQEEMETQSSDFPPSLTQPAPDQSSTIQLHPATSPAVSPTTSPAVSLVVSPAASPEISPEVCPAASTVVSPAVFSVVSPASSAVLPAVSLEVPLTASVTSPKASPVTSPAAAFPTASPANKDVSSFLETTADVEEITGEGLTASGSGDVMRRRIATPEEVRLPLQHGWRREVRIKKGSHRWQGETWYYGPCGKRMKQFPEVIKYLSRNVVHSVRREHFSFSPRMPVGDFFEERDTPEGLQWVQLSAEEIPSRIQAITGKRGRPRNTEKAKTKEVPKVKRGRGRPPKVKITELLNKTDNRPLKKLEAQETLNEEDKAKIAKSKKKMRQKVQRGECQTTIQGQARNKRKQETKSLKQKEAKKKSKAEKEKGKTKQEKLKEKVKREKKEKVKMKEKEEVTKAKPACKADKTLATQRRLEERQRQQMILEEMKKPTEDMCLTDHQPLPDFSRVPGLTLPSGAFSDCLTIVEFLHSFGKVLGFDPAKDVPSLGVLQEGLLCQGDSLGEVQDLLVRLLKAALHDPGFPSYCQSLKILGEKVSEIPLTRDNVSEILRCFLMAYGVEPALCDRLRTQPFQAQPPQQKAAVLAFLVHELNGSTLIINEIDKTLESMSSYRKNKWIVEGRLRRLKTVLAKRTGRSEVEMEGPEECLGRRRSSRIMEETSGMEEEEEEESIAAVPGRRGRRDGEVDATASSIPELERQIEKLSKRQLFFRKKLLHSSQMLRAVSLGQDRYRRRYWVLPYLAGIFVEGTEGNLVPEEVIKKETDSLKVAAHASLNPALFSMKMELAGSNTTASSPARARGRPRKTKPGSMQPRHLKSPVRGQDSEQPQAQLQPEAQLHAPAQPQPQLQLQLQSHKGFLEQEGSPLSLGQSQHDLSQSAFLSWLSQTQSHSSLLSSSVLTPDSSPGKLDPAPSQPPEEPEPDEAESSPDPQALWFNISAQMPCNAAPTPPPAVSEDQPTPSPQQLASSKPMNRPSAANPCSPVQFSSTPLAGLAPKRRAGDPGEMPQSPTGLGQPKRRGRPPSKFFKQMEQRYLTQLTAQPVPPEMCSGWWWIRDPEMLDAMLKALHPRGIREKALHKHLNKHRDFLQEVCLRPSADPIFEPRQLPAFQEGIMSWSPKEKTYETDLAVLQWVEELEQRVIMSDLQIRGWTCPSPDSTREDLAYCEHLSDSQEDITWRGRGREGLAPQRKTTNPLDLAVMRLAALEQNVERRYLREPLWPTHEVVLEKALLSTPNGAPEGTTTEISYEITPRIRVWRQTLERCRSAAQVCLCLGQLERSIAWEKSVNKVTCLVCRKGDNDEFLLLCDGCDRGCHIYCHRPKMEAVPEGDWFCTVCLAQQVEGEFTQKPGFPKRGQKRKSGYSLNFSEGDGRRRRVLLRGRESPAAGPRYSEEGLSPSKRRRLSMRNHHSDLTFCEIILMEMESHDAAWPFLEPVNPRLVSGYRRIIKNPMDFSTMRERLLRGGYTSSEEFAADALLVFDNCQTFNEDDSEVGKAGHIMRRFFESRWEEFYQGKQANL

HPAC = assay: Cytotoxicity against human HPAC cells measured after 8 days; type: functional, cell-based; details: 192 h
MC116 = assay: Cytotoxicity against human MC116 cells measured after 8 days; type: functional, cell-based; details: MC116, 192 h
[10] = target: 5-hydroxytryptamine receptor 1B (Rattus norvegicus) (UniProt P28564); assay: Displacement of [125I]-CYP from rat brain 5-HT1B receptor at 10 uM after 120 mins by scintillation counting analysis relative to control
Sequence of 5-hydroxytryptamine receptor 1B (Rattus norvegicus) (P28564 whole entry): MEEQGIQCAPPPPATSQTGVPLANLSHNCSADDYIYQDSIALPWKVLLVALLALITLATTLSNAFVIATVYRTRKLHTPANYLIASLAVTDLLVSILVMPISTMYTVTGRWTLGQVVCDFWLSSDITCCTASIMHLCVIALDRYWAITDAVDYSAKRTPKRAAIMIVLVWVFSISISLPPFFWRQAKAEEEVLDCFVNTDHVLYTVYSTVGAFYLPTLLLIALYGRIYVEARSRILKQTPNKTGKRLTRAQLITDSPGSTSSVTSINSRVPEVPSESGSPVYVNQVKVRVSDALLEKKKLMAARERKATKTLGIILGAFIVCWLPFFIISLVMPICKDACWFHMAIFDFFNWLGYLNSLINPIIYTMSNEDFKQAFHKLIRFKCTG

HCC78 = assay: Cytotoxicity against human HCC78 cells measured after 8 days; type: functional, cell-based; details: HCC78, 192 h
[11] = Cytotoxicity against human PL-21 cells measured after 8 days; type: functional, cell-based; details: PL-21, 192 h
EPLC-272H = assay: Cytotoxicity against human EPLC-272H cells measured after 8 days; type: functional, cell-based; details: 192 h

Structure (SMILES) | IC50 [1] [µM] | Kd (Peregrin) [µM] | IC50 (HCC4017) [µM] | IC50 [2] [µM] | IC50 [3] [µM] | IC50 (OCI-AML-5) [µM] | inhibition [4] [%] | IC50 [5] [µM] | IC50 (NCI-H1993) [µM] | IC50 [6] [µM] | IC50 [7] [µM] | Kd [8] [µM] | Kd [9] [µM] | IC50 (HPAC) [µM] | IC50 (MC116) [µM] | Activity [10] [%] | IC50 (HCC78) [µM] | IC50 [11] [µM] | IC50 (EPLC-272H) [µM]
C/C=C/Cn1cc(-c2cc(OC)c(C(=O)N3CCOCC3)cc2OC)c2cc(C)[nH]c2c1=O | 2 | > 10 | 2 | 2 | 2 | 2 | 3 | 2 | 2 | 2 | 2 | > 10 | > 10 | 2 | 2 | -10 | 2 | 2 | 2
C/C=C/Cn1cc(-c2ccc(C(C)(C)O)cc2OC)c2cc[nH]c2c1=O | 20 | > 10 | 20 | 20 | 20 | 20 | 1.5 | 20 | 20 | 20 | 20 | 1.6 | > 10 | 20 | 4.97 | -15 | 20 | 20 | 20
C/C=C/Cn1cc(-c2ccc(C(=O)N3CCOCC3)cc2)c2cc[nH]c2c1=O | 20 | > 10 | 20 | 20 | 20 | 20 | -2.4 | 20 | 20 | 20 | 20 | 1.7 | > 10 | 20 | 10.2 | 8 | 20 | 20 | 20
C/C=C/Cn1cc(-c2cc(OC)c(C(C)(C)O)cc2OC)c2cc(C)[nH]c2c1=O | – | > 10 | – | – | – | – | – | – | – | – | – | 9.4 | > 10 | – | – | – | – | – | –
